Assay results reported in US4504481A, “Benzhydrylpiperazine derivatives, process for their preparation and pharmaceutical compositions containing them” (Richter Gedeon Vegyeszeti Gyar Rt., priority 1982, dated 1985).

Assays:
[1] = system: aminopyrine demethylase; assay: aminopyrine demethylase activity of liver after oral treatment (formaldehyde formed); assay type: in vivo, Female H.-Wistar rats; conditions: rat liver, 2 hours after single 40 mg./kg. oral dose; ± S.E.; control 260.7 ± 11.2 nmoles/g. of liver/min.
Protocol: (§1) The enzyme inhibiting activity of the compounds of the formula (I) was further tested by determining the activity of the polysubstrate liver monooxygenase enzyme system after treatment with placebo and the compounds according to the invention, respectively. Female H.-Wistar rats weighing 50 to 60 g. each were administered a single 40 mg./kg. oral dose of the test compounds. Two hours after treatment the animals were decapitated and the livers were removed. After rinsing with a physiological saline solution at 0° C., drying and weighing, the livers were homogenized in a 0.1 molar Tris-HCl buffer (pH=7.4), containing 1.15% of potassium chloride at 0° C., centrifuged at 9000 g for 20 minutes, and the supernatant (postmitochondrial fraction) was used for further investigations. The microsomal fraction was prepared following the method developed by Cinti D. L. et al.: Biochem. Pharmacol., 21, 3249 (1972). The activity of aniline hydroxylase was determined from the velocity of p-amino-phenol formation according to Chabra R. S. et al.: Toxicol. Appl. Pharmacol. 22, 50 (1972). The activity of the aminopyrine demethylase was measured from the amount of the formaldehyde formed, according to Gourlay G. K. et al: Biochem. Pharmacol., 27, 965 (1978). The control groups were treated with placebo. The results are shown in Table 2, expressed in percentage of the control.

[2] = system: hexobarbital oxidase; assay: in vivo hexobarbital narcosis period (change of hexobarbital oxidase activity); set-up: species or system Female Hann.-Wistar rats; conditions: rat, hexobarbital sodium 60 mg./kg. i.v., ± S.E., n=10; for Hexobarbital narcosis period in % of control, 1 hour: 1 hour after administration, control 44.3 ± 5.67 min.; for Hexobarbital narcosis period in % of control, 24 hours: 24 hours after administration, control 47.0 ± 5.21 min.
Protocol: The enzyme inhibiting activity of the new compounds was tested in vivo, by measuring the change of hexobarbital oxidase activity. Female Hann.-Wistarrats, each weighing 50 to 60 g. were treated orally with a single 40 mg./kg. dose of the test compound. One and 24 hours after the administration of the active ingredient, the animals were narcotized with a 60 mg./kg. i.v. dosage of hexobarbital sodium, and the time elapsed until complete wakening was measured (Noordhoek, J.: Eur. J. Pharmacol., 3, 242 (1968)). The data were recorded, and the mean values, the standard errors as well as the percentage increase with respect to the controls were calculated for each group. […] The hexobarbital concentration of the plasm, measured on the instant wakening, was the same for both the treated and the control animals, and thus the increase of narcosis period was not due to a certain central nervous interaction (Jori, A. et al.: Biochem. Pharmacol., 19, 2687 (1970)).
The control group was treated with placebo.

[3] = system: aniline hydroxylase; assay: aniline hydroxylase activity of liver after oral treatment (p-amino-phenol formation); assay type: in vivo, Female H.-Wistar rats; conditions: rat liver, 2 hours after single 40 mg./kg. oral dose; ± S.E.; control 19.8 ± 0.53 nmoles/g. of liver/min.
Protocol: as §1

[4] = acute oral toxicity; conditions: in vivo; rat, single 500 mg./kg. oral dose, 14 days observation, n=10; read-out: Perished animals
Protocol: The acute toxicity of the compounds having the formula (I) was tested on H-Wistar rats of both sexes, each weighing 160 to 180 g. The compounds were administered in a single 500 mg./kg. oral dose.

[5] = H. Ippen: Index Pharmacorum (1970); cited from earlier work

Structure (SMILES) | Aminopyrine demethylase activity, in percentage of the control [1] | Hexobarbital narcosis period in % of control, 1 hour ([2]; single oral dose 40 mg./kg.) | Hexobarbital narcosis period in % of control, 24 hours ([2]; single oral dose 40 mg./kg.) | Aniline hydroxylase activity, in percentage of the control [3] | mortality at 336 h [4] | Hexobarbital narcosis period in % of control, 1 hour ([2]; reference dose 100 mg./kg.) | Hexobarbital narcosis period in % of control, 24 hours ([2]; reference dose 100 mg./kg.) | anticonvulsive side effect [5]
CCC(O)(c1ccc(OCCCN2CCN(C(c3ccccc3)c3ccccc3)CC2)cc1)c1ccccc1OC (stereo not drawn) [A, α-ethyl-α-(2-methoxyphenyl)-4-[3-(4-benzhydryl-piperazin-1-yl)-propoxy]-benzylalcohol] | 71 ± 8.1 % of control | 116 ± 6.7 % of control | 172 ± 8.7 % of control | 72 ± 5.8 % of control | 0% | – | – | –
CCCC(C(=O)OCCN(CC)CC)(c1ccccc1)c1ccccc1 [Proadiphene, (2-diethylaminoethyl)-α,α-diphenyl valerate, reference compound] | – | – | – | – | 90% | 241 ± 9.6 % of control | 44 ± 5.7 % of control | exerted an anticonvulsive side effect
